According to article PMC9516332 (Frontiers in Oncology, 2022):
Read-outs that look alike come from different tables or passages of the source.

Key:
134 cancer cell lines [1] = system: 134 cancer cell lines
AP-1060 (ETV6-NTRK3) = assay: Cell viability assay; conditions: read-out: IC50 in cell proliferation assay
134 cancer cell lines [2] = assay: Cell viability assay (ATPlite, 72 hours), IC50 on cancer cell line panel

In the case of `CC(C)(C)c1nc(-c2cccc(NS(=O)(=O)c3c(F)cccc3F)c2F)c(-c2ccnc(N)n2)s1` [dabrafenib], the IC50 (134 cancer cell lines [1]) is reported as 1080 nM, the IC50 (AP-1060 (ETV6-NTRK3)) is reported as 2520 nM and the IC50 (134 cancer cell lines [2]; HEC-6, read-out: IC50 in cell proliferation assay, HEC-6 cell line (EGFR p.A289V)) is reported as > 10000 nM. The IC50 (134 cancer cell lines [2]; Homo sapiens, 769-P, read-out: IC50 in cell proliferation assay, cell line 769-P) was 1050 nM, the IC50 (134 cancer cell lines [2]; Homo sapiens, 786-0, read-out: IC50 in cell proliferation assay, cell line 786-O) was 1680 nM and the IC50 (134 cancer cell lines [2]; Homo sapiens, A 172, read-out: IC50 in cell proliferation assay, cell line A-172) was > 10000 nM. For the same compound, the IC50 (134 cancer cell lines [2]; Homo sapiens, A204, read-out: IC50 in cell proliferation assay, cell line A-204) was 2000 nM, the IC50 (134 cancer cell lines [2]; Homo sapiens, A498, read-out: IC50 in cell proliferation assay, cell line A-498) was 750 nM and the IC50 (134 cancer cell lines [2]; Homo sapiens, A549, read-out: IC50 in cell proliferation assay, cell line A-549) was 2650 nM. It also gave an IC50 (134 cancer cell lines [2]; Homo sapiens, A704, read-out: IC50 in cell proliferation assay, cell line A-704) of 822 nM, an IC50 (134 cancer cell lines [2]; Homo sapiens, A-375, read-out: IC50 in cell proliferation assay, cell line A-375 (BRAF p.V600E)) of 71 nM and an IC50 (134 cancer cell lines [2]; Homo sapiens, A-427, read-out: IC50 in cell proliferation assay, cell line A-427) of 2240 nM. The IC50 (134 cancer cell lines [2]; Homo sapiens, ACHN, read-out: IC50 in cell proliferation assay, cell line ACHN) was 598 nM, the IC50 (134 cancer cell lines [2]; Homo sapiens, AN3-CA, read-out: IC50 in cell proliferation assay, cell line AN3-CA (FGFR2 p.N549K)) was 2620 nM and the IC50 (134 cancer cell lines [2]; Homo sapiens, ASPC1, read-out: IC50 in cell proliferation assay, cell line AsPC-1) was > 10000 nM. For the same compound, the IC50 (134 cancer cell lines [2]; Homo sapiens, AU565, read-out: IC50 in cell proliferation assay, cell line AU565 (ERBB2 amplification)) was 981 nM, the IC50 (134 cancer cell lines [2]; Homo sapiens, BT-20, read-out: IC50 in cell proliferation assay, cell line BT-20) was > 10000 nM and the IC50 (134 cancer cell lines [2]; Homo sapiens, BT-474, read-out: IC50 in cell proliferation assay, cell line BT-474 (ERBB2 amplification)) was > 10000 nM. For the same compound, the IC50 (134 cancer cell lines [2]; Homo sapiens, BT-549, read-out: IC50 in cell proliferation assay, cell line BT-549) was 1530 nM, the IC50 (134 cancer cell lines [2]; Homo sapiens, BXPC-3, read-out: IC50 in cell proliferation assay, cell line BxPC-3) was 681 nM and the IC50 (134 cancer cell lines [2]; Homo sapiens, C-33-A, read-out: IC50 in cell proliferation assay, cell line C-33 A) was > 10000 nM. For the same compound, the IC50 (134 cancer cell lines [2]; Homo sapiens, CAL-27, read-out: IC50 in cell proliferation assay, cell line CAL-27) was > 10000 nM, the IC50 (134 cancer cell lines [2]; Homo sapiens, CCF-STTG1, read-out: IC50 in cell proliferation assay, cell line CCF-STTG1) was > 10000 nM and the IC50 (134 cancer cell lines [2]; Homo sapiens, CCRF-CEM, read-out: IC50 in cell proliferation assay, cell line CCRF-CEM) was 1590 nM. It also gave an IC50 (134 cancer cell lines [2]; Homo sapiens, COLO 205, read-out: IC50 in cell proliferation assay, cell line COLO 205 (BRAF p.V600E)) of 17 nM, an IC50 (134 cancer cell lines [2]; Homo sapiens, COLO-829, read-out: IC50 in cell proliferation assay, cell line COLO 829 (BRAF p.V600E)) of 44 nM and an IC50 (134 cancer cell lines [2]; Homo sapiens, DLD-1, read-out: IC50 in cell proliferation assay, cell line DLD-1) of 1070 nM. The IC50 (134 cancer cell lines [2]; Homo sapiens, DU-4475, read-out: IC50 in cell proliferation assay, cell line DU4475 (BRAF p.V600E)) was 55 nM, the IC50 (134 cancer cell lines [2]; Homo sapiens, Daoy, read-out: IC50 in cell proliferation assay, cell line Daoy) was 919 nM and the IC50 (134 cancer cell lines [2]; Homo sapiens, DoTc2-4510, read-out: IC50 in cell proliferation assay, cell line DoTc2 4510) was > 10000 nM. The IC50 (134 cancer cell lines [2]; Homo sapiens, EOL1, read-out: IC50 in cell proliferation assay, cell line EoL-1 (FIP1L1-PDGFRA)) was 2680 nM, the IC50 (134 cancer cell lines [2]; Homo sapiens, FaDu, read-out: IC50 in cell proliferation assay, cell line FaDu) was 2630 nM and the IC50 (134 cancer cell lines [2]; Homo sapiens, G-361, read-out: IC50 in cell proliferation assay, cell line G-361 (BRAF p.V600E)) was 47 nM. The IC50 (134 cancer cell lines [2]; Homo sapiens, HCC827, read-out: IC50 in cell proliferation assay, cell line HCC827 (EGFR exon19del)) was 1270 nM, the IC50 (134 cancer cell lines [2]; Homo sapiens, HCC4006, read-out: IC50 in cell proliferation assay, cell line HCC4006 (EGFR exon19del)) was > 10000 nM and the IC50 (134 cancer cell lines [2]; Homo sapiens, HCT-15, read-out: IC50 in cell proliferation assay, cell line HCT 15) was 1520 nM. The IC50 (134 cancer cell lines [2]; Homo sapiens, HCT-116, read-out: IC50 in cell proliferation assay, cell line HCT 116) was 1110 nM, the IC50 (134 cancer cell lines [2]; Homo sapiens, HEC-1, read-out: IC50 in cell proliferation assay, HEC-1 cell line) was 1260 nM and the IC50 (134 cancer cell lines [2]; Homo sapiens, HEC-1B, read-out: IC50 in cell proliferation assay, HEC-1-B cell line (EGFR p.A864V)) was > 10000 nM. The IC50 (134 cancer cell lines [2]; Homo sapiens, HL-60, read-out: IC50 in cell proliferation assay, HL-60 cell line) was > 10000 nM, the IC50 (134 cancer cell lines [2]; Homo sapiens, HT, read-out: IC50 in cell proliferation assay, HT cell line) was > 10000 nM and the IC50 (134 cancer cell lines [2]; Homo sapiens, HT-1080, read-out: IC50 in cell proliferation assay, HT-1080 cell line) was 971 nM. The IC50 (134 cancer cell lines [2]; Homo sapiens, Hs746T, read-out: IC50 in cell proliferation assay, Hs 746.T cell line (MET exon14skip + amplification)) was > 10000 nM, the IC50 (134 cancer cell lines [2]; Homo sapiens, Hs-578T, read-out: IC50 in cell proliferation assay, Hs 578T cell line) was 1110 nM and the IC50 (134 cancer cell lines [2]; Homo sapiens, HuTu80, read-out: IC50 in cell proliferation assay, HuTu 80 cell line) was 2990 nM. The IC50 (134 cancer cell lines [2]; Homo sapiens, J82, read-out: IC50 in cell proliferation assay, J82 cell line) was > 10000 nM, the IC50 (134 cancer cell lines [2]; Homo sapiens, Jurkat E6.1, read-out: IC50 in cell proliferation assay, Jurkat E6.1 cell line) was 1300 nM and the IC50 (134 cancer cell lines [2]; Homo sapiens, K562, read-out: IC50 in cell proliferation assay, K-562 cell line) was > 10000 nM. For the same compound, the IC50 (134 cancer cell lines [2]; Homo sapiens, KATO III, read-out: IC50 in cell proliferation assay, KATO III cell line (FGFR2 amplification)) was 1770 nM, the IC50 (134 cancer cell lines [2]; Homo sapiens, KG-1, read-out: IC50 in cell proliferation assay, KG-1 cell line (FGFR1OP2-FGFR1)) was 1210 nM and the IC50 (134 cancer cell lines [2]; Homo sapiens, KLE, read-out: IC50 in cell proliferation assay, KLE cell line) was 1560 nM. The IC50 (134 cancer cell lines [2]; Homo sapiens, KMS-11, read-out: IC50 in cell proliferation assay, KMS-11 cell line (FGFR3 p.Y373C)) was > 10000 nM, the IC50 (134 cancer cell lines [2]; Homo sapiens, KU812, read-out: IC50 in cell proliferation assay, Ku812 cell line) was 8650 nM and the IC50 (134 cancer cell lines [2]; Homo sapiens, Kasumi 1, read-out: IC50 in cell proliferation assay, Kasumi-1 cell line (KIT p.N822K)) was 9050 nM. The IC50 (134 cancer cell lines [2]; Homo sapiens, LC-2-ad, read-out: IC50 in cell proliferation assay, LC-2/ad cell line (CCDC6-RET)) was 2070 nM, the IC50 (134 cancer cell lines [2]; Homo sapiens, LNCaP-Clone-FGC, read-out: IC50 in cell proliferation assay, LNCaP clone FGC cell line) was 2730 nM and the IC50 (134 cancer cell lines [2]; Homo sapiens, LS174T, read-out: IC50 in cell proliferation assay, LS174T cell line) was > 10000 nM. For the same compound, the IC50 (134 cancer cell lines [2]; Homo sapiens, LS-411N, read-out: IC50 in cell proliferation assay, LS411N cell line (BRAF p.V600E)) was 22 nM, the IC50 (134 cancer cell lines [2]; Homo sapiens, LoVo, read-out: IC50 in cell proliferation assay, LoVo cell line) was 4360 nM and the IC50 (134 cancer cell lines [2]; Homo sapiens, MCF7, read-out: IC50 in cell proliferation assay, MCF-7 cell line) was > 10000 nM. The IC50 (134 cancer cell lines [2]; Homo sapiens, MDA-MB-231, read-out: IC50 in cell proliferation assay, MDA-MB-231 cell line) was > 10000 nM, the IC50 (134 cancer cell lines [2]; Homo sapiens, MDA-MB-453, read-out: IC50 in cell proliferation assay, MDA-MB-453 cell line) was > 10000 nM and the IC50 (134 cancer cell lines [2]; Homo sapiens, MDA-MB-468, read-out: IC50 in cell proliferation assay, MDA-MB-468 cell line) was > 10000 nM. The IC50 (134 cancer cell lines [2]; Homo sapiens, MG-63, read-out: IC50 in cell proliferation assay, MG-63 cell line) was > 10000 nM, the IC50 (134 cancer cell lines [2]; Homo sapiens, MIA PaCa-2, read-out: IC50 in cell proliferation assay, MIA PaCa-2 cell line) was > 10000 nM and the IC50 (134 cancer cell lines [2]; Homo sapiens, MKN-45, read-out: IC50 in cell proliferation assay, MKN45 cell line (MET amplification)) was > 10000 nM. The IC50 (134 cancer cell lines [2]; Homo sapiens, MOLM-13, read-out: IC50 in cell proliferation assay, MOLM-13 cell line (FLT3 ITD)) was 5700 nM.
